Test [1] has as its target T1, STING (Homo sapiens, UniProt Q86WV6). Briefly: Western Blot analysis of inhibition of STING activation in HFF-1 cells. Type of test: cell-based. Set-up: host or cells: HFF-1 human foreskin fibroblasts. The settings on record: agonist only (-): 300 nM diABZI c3 or 8 µg/mL cGAMP. The procedure: To assess whether S1 STING ligands inhibit STING activation, primary human skin fibroblasts (Figure 5) or HFF-1 cells (Figure 6) were treated with various compounds which comprise only an S1 ligand domain and a Linker domain before undergoing Western Blot analysis as described below.
The cells were lysed and analysed on WB. […] The WB membrane was probed for p-STING, STING, p-IRF3, p-TBK1, and Vinculin.
(In general: Immunoblotting shows a protein as a band on a membrane.)

The target of test [2] is T1, STING. Briefly: Western Blot analysis of STING phosphorylation in human fibroblast cells (STING agonism). Type of test: cell-based. Set-up: host or cells: HFF-1 human foreskin fibroblasts. The settings on record: control, 300nM diABZI C3 alone. The procedure:
Human fibroblast were treated with a titration of E22, E9, E14 and E16 (7.2µM-3.6nM) for 24h prior to cell lysis and subsequently total STING, pSTING and Vinculin were assessed by western blot using rabbit anti-STING (1:1000), anti-pSTING (1:1000), anti-Vinculin (1:1000) and 2nd anti-rabbit-HRP (1:10.000) or anti-mouse-HRP (1:7500). Proteins were visualized using ImageQuant800. Control cells included untreated cells and cells treated with 300nM diABZI C3.

For test [3], the target named is T1, STING. Nature of the test: Inhibition of STING-agonist-induced IFN-β and CXCL10 release by Compounds A9 and A11. The class given is cell-based. The arrangement: host or cells: HFF-1 human foreskin fibroblasts. As for the experimental part: HFF-1 cells were also assessed for inhibition of STING-agonist-induced IFN-β and CXCL10 release in cells treated with Compounds A9 and A11. […] In contrast, pre-treating cells for 1 to 2 hours prior to diABZI c3, simultaneous treatment with A9 and diABZI c3, or pre-treating cells for 15 minutes with diABZI c3 followed by A9 treatment led to a decrease in the IFN media concentration to ~100 U/mL. […] In contrast, cells pre-treated for 1 to 2 hours prior to diABZI c3, simultaneous treatment with A9 and diABZI c3, or pre-treating cells for 15 minutes with diABZI c3 followed by A9 treatment led to a decrease in the CXCL10 media concentration to […] (Figure 9B, unfiled bars).
In contrast, pre-treating cells for 1 to 2 hours prior to diABZI c3, simultaneous treatment with A11 and diABZI c3, or pre-treating cells for 15 minutes with diABZI c3 followed by A11 treatment led to a decrease in the IFN media concentration to -10 - 20 U/mL. […] In contrast, cells pre-treated for 1 to 2 hours prior to diABZI c3, simultaneous treatment with A11 and diABZI c3, or pre-treating cells for 15 minutes with diABZI c3 followed by A11 treatment led to a decrease in the CXCL10 media concentration to -10 - 20 pg/mL (Figure 9B; filled bars).

Test [4] deals with T2, STING (Mus musculus, UniProt Q3TBT3).
T2 sequence (Q3TBT3 1-378): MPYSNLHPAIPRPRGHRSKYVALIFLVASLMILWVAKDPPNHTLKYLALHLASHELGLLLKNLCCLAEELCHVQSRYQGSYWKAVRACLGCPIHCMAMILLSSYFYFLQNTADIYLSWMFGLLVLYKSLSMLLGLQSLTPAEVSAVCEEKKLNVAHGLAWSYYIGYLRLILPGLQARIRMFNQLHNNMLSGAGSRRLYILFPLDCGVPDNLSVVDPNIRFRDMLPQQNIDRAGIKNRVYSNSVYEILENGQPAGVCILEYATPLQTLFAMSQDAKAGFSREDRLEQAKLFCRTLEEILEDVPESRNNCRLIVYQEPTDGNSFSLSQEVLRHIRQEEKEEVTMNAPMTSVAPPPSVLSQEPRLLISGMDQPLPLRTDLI
Nature of the test: IFN-β secretion from mouse RAW264.7 cells treated with diABZI. The class given is cell-based. Set-up: endogenous in cells; host or cells: RAW264.7 mouse cells. The following applies: 1.8 µM diABZI c3 only. As for the experimental part:
As expected, RAW264.7 cells treated with 1.8 µM diABZI c3 increased IFN-β secretion, resulting in a media concentration of around 1000 pg/mL. In contrast, cells treated with 1.8 µM diABZI c3 and 0.05 µM Example compounds 14, 16 or 24 reduced this expression to approximately 500 pg/mL.

Test [5] has as its target T3, C-terminal domain (CTD) of human STING (Homo sapiens, UniProt Q86WV6). Briefly: STING binding TR-FRET assay. Set-up: purchased CisBio 64BDSTGPEG
The settings on record: Human STING WT Binding Kit (CisBio). As for the experimental part:
The affinity of molecules to the C-terminal domain (CTD) of human STING was determined using a commercial Human STING WT Binding Kit (CisBio, cat.# 64BDSTGPEG). In this time-resolved FRET assay, a recombinant human STING protein construct with a His-tag was employed. When bound to STING, a D2-labeled active site probe accepts the 620 nm emission from Anti-HIS-Tb-STING and an increase in fluorescence is measured at 665 nm. Molecules that compete for the probe binding site will result in a low 665 nm signal. The assay was run in CisBio low-volume white 96-well plates (catalog# 66PL96005) containing 5 µL compounds in Diluent Buffer (supplied with the CisBio kit). A solution of 1xSTING, 1x Anti-HIS-Tb and 1X D2-probe in TB detection buffer (kit supplied) was added to the plate. Plates were centrifuged for 2 min at 500 rpm, incubated for 60 min at room temperature in the dark, and then fluorescence emission at 665 nm following 330 nm xenon flash excitation on an BioTek synergy H1 multimode reader (Agilent) was measured. The plC50 values were determined using a standard four parameter curve fit in GraphPad Prism.
(In general: Time-resolved FRET reads energy transfer from a long-lived donor to a nearby acceptor.)
Target sequence in this assay (Q86WV6 135-379 limits assumed): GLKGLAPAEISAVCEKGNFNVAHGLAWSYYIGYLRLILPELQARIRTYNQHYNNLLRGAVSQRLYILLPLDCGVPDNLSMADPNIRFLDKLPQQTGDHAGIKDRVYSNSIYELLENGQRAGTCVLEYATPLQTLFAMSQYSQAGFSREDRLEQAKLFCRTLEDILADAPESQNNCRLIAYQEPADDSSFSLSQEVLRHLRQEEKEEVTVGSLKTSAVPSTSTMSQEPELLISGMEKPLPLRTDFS

Test [6] concerns the target T3, C-terminal domain (CTD) of human STING. Briefly: STING binding FP assay I. Set-up: recombinant human STING protein (155-379). The following applies: 35 nM STING, 4 nM Probe 1. The procedure:
The interaction between molecules and the C-terminal domain (CTD) of human STING was evaluated using a competition binding assay. In this assay, recombinant human STING protein (155-379) and a STING binding fluorescent probe were employed. Upon binding of the probe to STING, the rotation of the fluorescent probe is slowed due to the larger molecular size of the protein-bound complex. As a result, emitted light retains its plane of polarization, leading to an increase in fluorescence polarization. Molecules competing for the probe binding site displace the probe, which leads to rapid randomization of the polarization plane of the emitted light and a subsequent decrease in measured fluorescence polarization signal. Change in polarization was measured, allowing a comparative evaluation of the binding affinities of different compounds to the target protein.
The assay was performed in 96-well plates (ThermoFisher, cat.# 237108) containing 100µl : 10 µL test compound in 10% DMSO and buffer A (150 mM NaCl, 50 mM HEPES pH 7.5, 1 mM DTT) + 90 µL prepared master mix solution of: 4 nM fluorescein-labelled STING ligand (Probe 1; synthesis described above) in buffer A + 0.055% Tween-20 (v/v) and 35 nM STING in buffer A. Post mixing, plates were agitated at 600rpm and incubated for 20 min at room temperature. Subsequent measurements of the fluorescence polarization signal were made on a BioTek Synergy-H1 plate reader, using a polarization filter; Exc: 485/20 nm, Em: […]) with a gain-setting of 75. IC50 values were determined using a standard non-linear regression four-parameter curve fit in Graphpad Prism.
Target sequence in this assay (Q86WV6 155-379): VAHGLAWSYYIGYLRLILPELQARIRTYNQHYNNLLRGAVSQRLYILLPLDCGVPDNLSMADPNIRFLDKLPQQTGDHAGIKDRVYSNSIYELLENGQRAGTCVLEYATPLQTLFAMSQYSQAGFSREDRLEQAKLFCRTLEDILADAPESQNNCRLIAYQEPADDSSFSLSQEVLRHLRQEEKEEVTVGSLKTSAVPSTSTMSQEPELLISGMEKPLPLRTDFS

Structures are written as SMILES. Several values for one entry are separate records, joined by “and”; a condition that tells them apart may be missing. Equal entries are not always repeated.

By IC50 is commonly meant the midpoint of a concentration-inhibition curve.

T1 sequence (Q86WV6 whole entry, the tested form may be a part): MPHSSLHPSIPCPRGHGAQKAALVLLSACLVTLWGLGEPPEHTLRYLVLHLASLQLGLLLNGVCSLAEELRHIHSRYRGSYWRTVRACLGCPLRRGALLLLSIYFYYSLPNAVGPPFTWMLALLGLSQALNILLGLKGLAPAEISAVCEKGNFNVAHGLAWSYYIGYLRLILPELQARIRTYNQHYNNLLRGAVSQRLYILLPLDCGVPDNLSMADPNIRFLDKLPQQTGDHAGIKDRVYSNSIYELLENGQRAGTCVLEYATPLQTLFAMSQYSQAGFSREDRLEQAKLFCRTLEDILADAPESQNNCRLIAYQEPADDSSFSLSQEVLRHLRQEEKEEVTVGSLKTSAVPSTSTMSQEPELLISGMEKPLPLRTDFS

With `CCn1nc(C)cc1C(=O)Nc1nc2cc(C(N)=O)cc(OC)c2n1C/C=C/Cn1c(NC(=O)c2cc(C)nn2CC)nc2cc(C(N)=O)cc(OCCCN3CCOCC3)c21.Cl.Cl.Cl` [diABZI c3, (E)-1-(4-(5-carbamoyl-2-(1-ethyl-3-methyl-1H-pyrazole-5-carboxamido)-7-(3-morpholinopropoxy)-1H-benzo[d]imidazol-1-yl)but-2-en-1-yl)-2-(1-ethyl-3-methyl-1H-pyrazole-5-carboxamido)-7-methoxy-1H-benzimidazole-5-carboxamide tris(hydrochloride), reference compound], the “phosphorylation of STING, IRF3 and TBK1” value at STING [1] was “STING was phosphorylated and activated as were the downstream STING effectors IRF3 and TBK1”. Besides, the “STING phosphorylation (pSTING)” value on STING [2] was “STING was phosphorylated”. For the same compound, at STING [3] (cells treated with diABZI c3 alone (0.3 µM)), the CXCL10 media concentration is reported as ~ 60 pg/mL. Besides, the IFN media concentration on STING [3] (cells treated with only diABZI c3 (0.3 µM), tris(hydrochloride)) was ~ 200 U/mL and ~ 100 U/mL. The IFN-β media concentration result on STING [4] is “around 1000 pg/mL”.

Regarding `CCOC(=O)COC(CCn1c(=NC(=O)c2cc(C)nn2CC)n(C)c2cc(C(N)=O)ccc21)CCn1c(=NC(=O)c2cc(C)nn2CC)n(C)c2cc(C(N)=O)ccc21` (stereo not shown) [Building Block G-2, Ethyl (3-{5-carbamoyl-2-[(1-ethyl-3-methyl-5-pyrazolyl)carbonylimino]-3-methyl-2,3-dihydro-1H-1,3-benzimidazol-1-yl}-1-(2-{5-carbamoyl-2-[(1-ethyl-3-methyl-5-pyrazolyl)carbonylimino]-3-methyl-2,3-dihydro-1H-1,3-benzimidazol-1-yl}ethyl)propoxy)acetate], the values for the IC50 in test [5] and in test [6] were 0.452 nM and under 30 nM, respectively.

(Values after EP4663632A1, “COMPOUNDS USEFUL FOR THE MODULATION OF THE ACTIVITY OF STING” (Sulis Therapeutics ApS, priority 2024, dated 2025).)
